Counter-ions that a name gives are not always drawn.
How the values were obtained:
[1] = system: human skin fibroblasts (derived from a human fore skin); test: Collagen gel tightening promoting ability (fibroblast-embedded collagen gel, dermis model); type: cell-based; settings: Homo sapiens, Skin fibroblast, 48 hours, relative volume, control = 100%
Method: Measurement was conducted on the ability to promote the tightening of a fibroblast-embedded collagen gel as a dermis model. The collagen gel was prepared following the procedure reported in a publication [J. Cell Science, 102, 315 (1992) or J. Invest. Dermatol., 93, 792 (1989)]. Described specifically, a solution of HEPES (250 mM) in a 0.05 N sodium hydroxide solution, a 5-fold concentrate of DMEM (“GIBCO DMEM”, low glucose), FCS (2%, Fetal Calf Serum) and purified water were added under ice cooling to a collagen gel solution (product of Nitta Gelatin Inc., “type 1-A” (3.0 mg/mL, pH=3)), and finally, a suspension of human skin fibroblasts (derived from a human fore skin) was added. After the resulting mixture was thoroughly stirred to eliminate bubbles, 600 μL per well was added to 24-well dishes, followed by immediate warming at 37° C. in an incubator to effect gelation. Three to four hours later, 1 mL of serum-free DMEM medium was added to each of the wells, and the gels were separated at peripheries thereof from the corresponding dishes and were brought into a floating state. Eighteen hours after that, the medium was replaced with serum-free DMEM media which contained 100 to 10 μM of test substances, respectively, and incubation was conducted further for 48 hours.
Volume measurement of the gels was conducted by a weight measuring method similar to that reported in the publication [J. Cell Science, 102, 315 (1992)]. Described specifically, subsequent to immobilization with 10% formalin (4° C., 24 hours), the surface tension of water was reduced by the addition of Triton X100 (product of Wako Pure Chemical Industries) (1%), and the weights were measured.
Measurement results of relative volumes for the respective compounds as calculated supposing that the volume of the control was 100% are presented in Table 3.

[2] = system: dorsal skin of HR rats (WBN/ILA-HT); test: Rat skin elasticity improving (tightening) effect, cutometer; type: in vivo; settings: 2% solution in 10% ethanol sprayed on dorsal skin, 0.7 mL, 7 to 8 times a week, two weeks
[3] = system: dorsal skin of HR rats (WBN/ILA-HT); test: as above; type: in vivo; settings: for Ur/Uf / Ue (instantaneous elastic displacement) / Uf (final displacement) / Ur (instantaneous recovery displacement): 2% solution in 10% ethanol, two weeks; for Ur/Uf: cutometer; for Ue (instantaneous elastic displacement) / Uf (final displacement) / Ur (instantaneous recovery displacement): cutometer 100 hpa, 5 s suction, 2 s release; for skin elasticity / skin tightening effect: when applied, from Table 4 and Table 5
Method: Onto the entire dorsal skins of HR rats (WBN/ILA-HT, 7 weeks old), 2% solutions of Compounds 1 and 4 (solvent: 10% ethanol) were applied in the form of spray, respectively, once or twice a day, 7 to 8 times a week in total, in an amount of 0.7 mL each time. As a control, 10% ethanol solution was used. Two weeks later, the skin elasticity of the skin at a central dorsal part at a site slightly rightward of the median line of each HR rat was measured under Nembutal anesthesia by using a cutometer (“CUTOMETER SEM474”, Courage+Khazaka Electronic GmbH). The measurement was conducted by setting the suction pressure, suction time and release time at 100 hpa, 5 seconds and 2 seconds, and an instantaneous elastic displacement Ue, an instantaneous recovery displacement Ur and a final displacement Uf were recorded. Based on changes in the skin elasticity, skin tightening effect was determined. Ue is an index of elasticity, while Uf is an index of softness and malleability. Both of these values decrease on the face or the like upon aging, and also decrease when the skin is in a swollen state. Increases in these values, therefore, can be taken as an indication of a state that the skin is in a tightened state with its softness, melleability and elasticity having been increased further. Ur is also an index of elasticity, and decreases when the skin is in a saggy state or a swollen state. Similarly, an increase in this value serves as an indication of a state that the skin is in a tightened state with its elasticity and tightness having been increased further. Further, Ur/Uf is also an index of the elasticity of the skin, and like Ur, decreases when the skin becomes saggy or is swollen. Moreover, Ur/Uf is known to decrease upon aging irrespective of the face or body site, and is an important index of sagginess.

[4] = system: human skin fibroblasts (derived from a human fore skin); test: Collagen gel tightening promoting ability (fibroblast-embedded collagen gel, dermis model); type: cell-based; settings: 48 hours, relative volume, control = 100%

CCCCCCCCCCCCOCC(O)COS(=O)(=O)[O-].[Na+] (stereo not shown) [Compound 1, 1-dodecylglycerol-3-sulfate sodium salt]
activity at 10 µM [1]: 93% | activity at 30 µM [1]: 85% | Skin thickness (mm) [2]: 0.820 mm | Ur/Uf [3]: 0.540 | Ue (instantaneous elastic displacement) [3]: 0.113 | Uf (final displacement) [3]: 0.159 | Ur (instantaneous recovery displacement) [3]: 0.834 | skin elasticity / skin tightening effect [3]: increased the skin elasticity and exhibited skin tightening effect

CC(C)CCCCCCCCCCCCCCCOCC(O)COS(=O)(=O)O (stereo not shown) [Compound 3, 1-isostearylglycerol-3-sulfate sodium salt]
activity at 10 µM [1]: 74% | activity at 30 µM [1]: 95% | activity at 3 µM [4]: 86%

CCCCCCCCCCOCC(O)COP(=O)([O-])[O-].[Na+].[Na+] (stereo not shown) [Compound 4, 1-decylglycerol-3-phosphate disodium salt]
activity at 15 µM ([1]; 15 μM, read-out: Average gel volume): 96% | activity at 50 µM ([1]; 50 μM, read-out: Average gel volume): 88% | Skin thickness (mm) [2]: 0.725 mm | Ur/Uf [3]: 0.401 | Ue (instantaneous elastic displacement) [3]: 0.225 | Uf (final displacement) [3]: 0.275 | Ur (instantaneous recovery displacement) [3]: 0.109 | skin elasticity / skin tightening effect [3]: increased the skin elasticity and exhibited skin tightening effect
